Here are results for 33 compounds from patent US20080261994A1, “CYCLOPROPANE COMPOUNDS AND PHARMACEUTICAL USE THEREOF” (Japan Tobacco Inc., priority 2003, published 2008).

One may read the pIC50 as −log10 of the IC50, conventionally taken in molar units.

The structures appear in SMILES notation. pIC50: −log10 of the molar value.

Holding throughout (format): biochemical
One experiment concerns the target T1, aggrecanase-1 (Homo sapiens, UniProt O75173).
T1 sequence (O75173 213-837): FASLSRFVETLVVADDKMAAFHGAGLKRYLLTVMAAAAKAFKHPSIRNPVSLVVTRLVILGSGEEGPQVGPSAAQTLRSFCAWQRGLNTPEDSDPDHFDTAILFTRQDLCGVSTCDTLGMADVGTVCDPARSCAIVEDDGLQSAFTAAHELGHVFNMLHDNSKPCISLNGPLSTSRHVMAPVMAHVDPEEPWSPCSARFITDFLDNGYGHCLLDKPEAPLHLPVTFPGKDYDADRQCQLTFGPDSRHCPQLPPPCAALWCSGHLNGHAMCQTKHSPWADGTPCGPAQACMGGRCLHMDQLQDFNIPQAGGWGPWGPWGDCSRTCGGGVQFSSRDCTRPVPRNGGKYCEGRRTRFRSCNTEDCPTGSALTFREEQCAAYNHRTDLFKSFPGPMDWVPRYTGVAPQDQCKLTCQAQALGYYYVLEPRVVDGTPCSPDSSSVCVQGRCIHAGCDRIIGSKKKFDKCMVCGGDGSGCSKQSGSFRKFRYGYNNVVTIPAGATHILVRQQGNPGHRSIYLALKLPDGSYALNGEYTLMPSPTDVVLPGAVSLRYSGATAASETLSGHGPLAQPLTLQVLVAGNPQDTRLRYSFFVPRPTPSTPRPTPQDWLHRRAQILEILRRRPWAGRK
In words: Aggrecanase-1 inhibitory action (Particle Assay, GAG release from aggrecan-containing polyacrylamide particles). Particulars: aggrecanase-1 inhibitory action; read-out: IC50 AG1 (Experimental Example 1). The essentials:
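Readout was dimethylmethylene blue absorbance (595 nm) of glycosaminoglycan liberated into supernatant, calibrated with whale chondroitin sulfate. Substrate was aggrecan in polyacrylamide particles, digested 15 h at 37° C in Tris-HCl; TC50 (μM) derived from inhibition relative to no-enzyme and no-inhibitor controls.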

In the next experiment the target is T2, MMP-1 (Homo sapiens, UniProt P03956).
T2 sequence (P03956 100-469): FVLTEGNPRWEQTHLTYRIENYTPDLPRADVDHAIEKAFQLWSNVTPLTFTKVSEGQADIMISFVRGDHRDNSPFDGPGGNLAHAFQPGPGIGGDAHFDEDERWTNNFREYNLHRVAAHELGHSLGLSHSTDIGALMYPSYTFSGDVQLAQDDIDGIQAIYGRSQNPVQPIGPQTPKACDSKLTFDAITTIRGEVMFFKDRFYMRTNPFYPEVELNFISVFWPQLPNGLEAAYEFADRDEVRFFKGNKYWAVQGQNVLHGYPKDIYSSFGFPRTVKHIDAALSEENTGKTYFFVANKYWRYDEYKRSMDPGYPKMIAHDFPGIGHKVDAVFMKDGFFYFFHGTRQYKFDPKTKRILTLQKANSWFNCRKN
In words: MMP-1 inhibitory action (Type I collagen Activity Measurement kit, FITC-labeled collagen type I). Particulars: MMP-1 inhibitory action, FITC-labeled collagen type I, 37° C. for 3 hr; read-out: IC50 MMP1 (Experimental Example 2).

For the next experiment, the target named is T3, Recombinant Human MMP-13 (Homo sapiens, UniProt P45452).
T3 construct: purchased R&D systems 511-MM
In words: MMP-13 inhibitory activity (MMP-13 specific fluorescent substrate with quencher). Particulars: Recombinant Human MMP-13, fluorescent substrate, 25° C. for 1 h; read-out: IC50 MMP13 (Experimental Example 3). In short, it runs like this: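 IC50 (μM) derived from % inhibition, normalised to wells without enzyme and without inhibitor, fluorescence read at 325/405 nm. Enzyme and compound preceded addition of the quenched 7-MCA…DPA substrate; Tris-HCl buffer, 25 °C for 1 h, acetic-acid stop.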

As for `Nc1cccc([C@H]2C[C@@]2(NS(=O)(=O)c2ccc(-c3ccc(Cl)cc3)s2)C(=O)O)c1` [Example 2-174], the pIC50 at aggrecanase-1 was more than 7.00; at MMP-1, not above 6.00; at Recombinant Human MMP-13 it was more than 7.00.

On to `O=C(O)c1cccc([C@H]2C[C@@]2(NS(=O)(=O)c2ccc(-c3ccc(Cl)cc3)s2)C(=O)O)c1` [Example 2-175], for which the figures for the pIC50 on aggrecanase-1, at MMP-1 and on Recombinant Human MMP-13 were more than 7.00, not above 6.00 and more than 6.00, respectively.

With `CN(C)c1cccc([C@H]2C[C@@]2(NS(=O)(=O)c2ccc(-c3ccc(Cl)cc3)s2)C(=O)O)c1` [Example 2-176], the pIC50 is more than 7.00 on aggrecanase-1, not above 5.00 at MMP-1 and more than 7.00 on Recombinant Human MMP-13.

Turning to `CC(=O)N1CC=C(c2ccc(S(=O)(=O)N[C@@]3(C(=O)O)C[C@@H]3c3ccccc3)s2)CC1` [Example 2-177], the pIC50 at aggrecanase-1 was not above 6.00; at MMP-1 it was not above 5.00; on Recombinant Human MMP-13, not above 6.00.

As to `O=C(O)[C@]1(NS(=O)(=O)c2ccc(-c3ccc(Cl)cc3)s2)C[C@@H]1c1ccccc1Br` [Example 2-178], the pIC50 at aggrecanase-1 is more than 7.00; at MMP-1 it was not above 5.00; on Recombinant Human MMP-13 it was more than 6.00.

Turning to `O=C(O)CCc1ccccc1C1CC1(NS(=O)(=O)c1ccc(-c2ccc(Cl)cc2)s1)C(=O)O` (stereo not drawn) [Example 2-179], the pIC50 at aggrecanase-1 is more than 7.00; at MMP-1 it was not above 5.00; on Recombinant Human MMP-13 it was more than 6.00.

`O=C(O)CCc1cccc(C2CC2(NS(=O)(=O)c2ccc(-c3ccc(Cl)cc3)s2)C(=O)O)c1` (stereo not drawn) [Example 2-180]: the pIC50 at aggrecanase-1 is more than 7.00; at MMP-1, not above 5.00; at Recombinant Human MMP-13, more than 7.00.

As to `O=C(O)Cc1cccc(C2CC2(NS(=O)(=O)c2ccc(-c3ccc(Cl)cc3)s2)C(=O)O)c1` (stereo not drawn) [Example 2-181], the pIC50 was more than 7.00 on aggrecanase-1, not above 6.00 on MMP-1 and more than 7.00 on Recombinant Human MMP-13.

With `O=C(O)[C@]1(NS(=O)(=O)c2ccc(-c3ccc(Cl)cc3)s2)C[C@@H]1c1cccc(CO)c1` [Example 2-182], the pIC50 was more than 7.00 on aggrecanase-1, not above 5.00 at MMP-1 and more than 7.00 at Recombinant Human MMP-13.

As to `CN(Cc1cccnc1)c1cccc([C@H]2C[C@@]2(NS(=O)(=O)c2ccc(-c3ccc(Cl)cc3)s2)C(=O)O)c1` [Example 2-183], the pIC50 is more than 7.00 on aggrecanase-1, not above 6.00 on MMP-1 and more than 7.00 on Recombinant Human MMP-13.

In the case of `COC(=O)c1cccc(C2CC2(NS(=O)(=O)c2ccc(-c3ccc(Cl)cc3)s2)C(=O)O)c1` (stereo not drawn) [Example 2-184], the pIC50 is more than 7.00 at aggrecanase-1, not above 6.00 at MMP-1 and more than 6.00 at Recombinant Human MMP-13.

For `O=C(O)C1(CS(=O)(=O)N2CCN(c3ccc(C(F)(F)F)cn3)CC2)CC1c1ccccc1` (stereo not drawn) [Example 2-185], the figures for the pIC50 on aggrecanase-1, at MMP-1 and on Recombinant Human MMP-13 were not above 6.00, not above 5.00 and more than 6.00, respectively.

Consider `O=C(O)C1(CS(=O)(=O)N2CCN(c3ccc(Cl)cc3)CC2)CC1c1ccccc1` (stereo not drawn) [Example 2-186], for which the pIC50 on aggrecanase-1 is not above 6.00; at MMP-1, not above 5.00; at Recombinant Human MMP-13, not above 6.00.

Regarding `O=C(O)C1(CS(=O)(=O)c2ccc(-c3ccc(Cl)cc3)s2)CC1c1ccccc1` (stereo not drawn) [Example 2-187], the pIC50 at aggrecanase-1, at MMP-1 and at Recombinant Human MMP-13 was not above 5.00 each time.

Take `COC(=O)Cc1cccc(C2CC2(NS(=O)(=O)c2ccc(-c3ccc(Cl)cc3)s2)C(=O)O)c1` (stereo not drawn) [Example 2-188]: the figures for the pIC50 at aggrecanase-1, on MMP-1 and on Recombinant Human MMP-13 were more than 7.00, not above 6.00 and more than 7.00, respectively.

With `CN(C)C(=O)Cc1cccc(C2CC2(NS(=O)(=O)c2ccc(-c3ccc(Cl)cc3)s2)C(=O)O)c1` (stereo not drawn) [Example 2-189], the results for the pIC50 at aggrecanase-1, at MMP-1 and at Recombinant Human MMP-13 were more than 7.00, not above 5.00 and more than 7.00, respectively.

With `O=C(Cc1cccc(C2CC2(NS(=O)(=O)c2ccc(-c3ccc(Cl)cc3)s2)C(=O)O)c1)N1CCOCC1` (stereo not drawn) [Example 2-190], the results for the pIC50 at aggrecanase-1, at MMP-1 and on Recombinant Human MMP-13 were more than 7.00, not above 6.00 and more than 7.00, respectively.

With `CN1CCN(C(=O)Cc2cccc(C3CC3(NS(=O)(=O)c3ccc(-c4ccc(Cl)cc4)s3)C(=O)O)c2)CC1` (stereo not drawn) [Example 2-191], the figures for the pIC50 on aggrecanase-1, on MMP-1 and on Recombinant Human MMP-13 were more than 7.00, not above 5.00 and more than 7.00, respectively.

For the compound `O=C(O)[C@@]1(NS(=O)(=O)c2ccc(-c3ccc(Cl)cc3)s2)C[C@H]1c1ccccc1` [Example 2-192], the pIC50 is more than 6.00 at aggrecanase-1, not above 5.00 at MMP-1 and more than 6.00 on Recombinant Human MMP-13.

Consider `O=C(O)[C@]1(NS(=O)(=O)c2ccc(-c3cc(C(F)(F)F)on3)s2)C[C@@H]1c1ccccc1Br` [Example 2-193], for which the pIC50 at aggrecanase-1 is more than 6.00; at MMP-1, not above 5.00; at Recombinant Human MMP-13 it was more than 6.00.

Take `O=C(Cc1ccccc1C1CC1(NS(=O)(=O)c1ccc(-c2ccc(Cl)cc2)s1)C(=O)O)N1CCOCC1` (stereo not drawn) [Example 2-194]: the values for the pIC50 at aggrecanase-1, at MMP-1 and on Recombinant Human MMP-13 were more than 6.00, not above 5.00 and more than 6.00, respectively.

Consider `CN1CCN(C(=O)Cc2ccccc2C2CC2(NS(=O)(=O)c2ccc(-c3ccc(Cl)cc3)s2)C(=O)O)CC1` (stereo not drawn) [Example 2-195], for which the pIC50 at aggrecanase-1 is more than 6.00; on MMP-1, not above 5.00; on Recombinant Human MMP-13, more than 6.00.

In the case of `O=C(O)c1ccccc1C1CC1(NS(=O)(=O)c1ccc(-c2ccc(Cl)cc2)s1)C(=O)O` (stereo not drawn) [Example 2-196], the pIC50 on aggrecanase-1 is more than 7.00; at MMP-1, not above 6.00; on Recombinant Human MMP-13 it was more than 7.00.

Consider `O=C(O)C1(NS(=O)(=O)c2ccc(-c3ccc(Cl)cc3)s2)CC1c1cccc(OCCN2CCOCC2)c1` (stereo not drawn) [Example 2-197], for which the pIC50 on aggrecanase-1 is more than 6.00; on MMP-1, not above 5.00; on Recombinant Human MMP-13, more than 6.00.

As to `CN1CCN(CCOc2cccc(C3CC3(NS(=O)(=O)c3ccc(-c4ccc(Cl)cc4)s3)C(=O)O)c2)CC1` (stereo not drawn) [Example 2-198], the pIC50 is more than 6.00 at aggrecanase-1, not above 5.00 on MMP-1 and more than 6.00 at Recombinant Human MMP-13.

Take `O=C(O)C1(NS(=O)(=O)c2ccc(-c3cc(C(F)(F)F)on3)s2)CC1c1cccc([N+](=O)[O-])c1` (stereo not drawn) [Example 2-199]: the pIC50 on aggrecanase-1 is more than 6.00; at MMP-1 it was not above 5.00; on Recombinant Human MMP-13, more than 6.00.

With `CN1CCN(C(=O)c2cccc(C3CC3(NS(=O)(=O)c3ccc(-c4ccc(Cl)cc4)s3)C(=O)O)c2)CC1` (stereo not drawn) [Example 2-200], the values for the pIC50 on aggrecanase-1, at MMP-1 and at Recombinant Human MMP-13 were more than 6.00, not above 5.00 and more than 6.00, respectively.

For `Nc1cccc(C2CC2(NS(=O)(=O)c2ccc(-c3cc(C(F)(F)F)on3)s2)C(=O)O)c1` (stereo not drawn) [Example 2-201], the pIC50 on aggrecanase-1 was more than 6.00; at MMP-1, not above 5.00; at Recombinant Human MMP-13, more than 7.00.

Regarding `O=C(O)C1(NS(=O)(=O)c2ccc(-c3ccc(Cl)cc3)s2)CC1c1ccc(Br)cc1` (stereo not drawn) [Example 2-202], the pIC50 on aggrecanase-1 is more than 6.00; at MMP-1 it was not above 5.00; at Recombinant Human MMP-13, more than 6.00.

As for `O=C(O)C1(NS(=O)(=O)c2ccc(-c3ccc(Cl)cc3)s2)CC1c1ccc(Br)cc1` (stereo not drawn) [Example 2-203], the pIC50 on aggrecanase-1 was more than 6.00; on MMP-1, not above 5.00; at Recombinant Human MMP-13 it was more than 7.00.

Consider `CN(C)C(=O)Cc1ccccc1C1CC1(NS(=O)(=O)c1ccc(-c2ccc(Cl)cc2)s1)C(=O)O` (stereo not drawn) [Example 2-204], for which the results for the pIC50 at aggrecanase-1, at MMP-1 and at Recombinant Human MMP-13 were more than 7.00, not above 5.00 and more than 6.00, respectively.

For `COC(=O)c1ccccc1C1CC1(NS(=O)(=O)c1ccc(-c2ccc(Cl)cc2)s1)C(=O)O` (stereo not drawn) [Example 2-205], the pIC50 was more than 7.00 on aggrecanase-1, not above 5.00 at MMP-1 and more than 6.00 at Recombinant Human MMP-13.

Regarding `O=C(O)[C@]1(NS(=O)(=O)c2ccc(-c3ccc(Cl)cc3)s2)C[C@@H]1c1ccccc1CO` [Example 2-206], the negative-log IC50 (pIC50) at aggrecanase-1 is more than 7.00; on MMP-1, not above 6.00; on Recombinant Human MMP-13 it was more than 7.00.
